Measured values as given in patent US20100267561A1, “HERBICIDAL PYRIDAZINONE DERIVATIVES” (priority 2007, published 2010).

Legend:
Assay type in all cases: in vivo
[1] = system: barnyardgrass (Echinochloa crus-galli); assay: Test A pre-/postemergence plant response
How it was run: (§1)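 Scores reflect visual plant injury relative to untreated controls on a 0–100 scale, recorded approximately 10 days after simultaneous preemergence soil spraying and postemergence spraying of one- to two-leaf seedlings grown in loam–sand.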

[2] = system: blackgrass (Alopecurus myosuroides); assay: Test A pre-/postemergence plant response
How it was run: as §1

[3] = system: canarygrass (Phalaris minor); assay: Test A pre-/postemergence plant response
How it was run: as §1

corn (Zea mays) = assay: Test A pre-/postemergence plant response
How it was run: as §1

[4] = system: giant foxtail (Setaria faberi); assay: Test A pre-/postemergence plant response
How it was run: as §1

[5] = system: large crabgrass (Digitaria sanguinalis); assay: Test A pre-/postemergence plant response
How it was run: as §1

[6] = system: pigweed (Amaranthus retroflexus); assay: Test A pre-/postemergence plant response
How it was run: as §1

[7] = system: wheat (Triticum aestivum); assay: Test A pre-/postemergence plant response
How it was run: as §1

[8] = system: barnyardgrass (Echinochloa crus-galli); assay: Test B flooded paddy test plant response
How it was run: (§2)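 Rice, umbrella sedge, ducksalad and barnyardgrass at 2-leaf stage; pots flooded to 3 cm, compounds applied into paddy water, depth held throughout. Greenhouse 13 to 15 days, then visual rating vs untreated controls on 0–100 scale (0 no effect, 100 complete control); dash means no test result.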

[9] = system: ducksalad (Heteranthera limosa); assay: Test B flooded paddy test plant response
How it was run: as §2

rice (Oryza sativa) = assay: Test B flooded paddy test plant response
How it was run: as §2

[10] = system: umbrella sedge (Cyperus difformis); assay: Test B flooded paddy test plant response
How it was run: as §2

[11] = Postemergence, 31 g ai/ha, 0 to 100 scale, 0 no effect, 100 complete control
[12] = Postemergence, 125 g ai/ha, 0 to 100 scale, 0 no effect, 100 complete control
[13] = Preemergence, 31 g ai/ha, 0 to 100 scale, 0 is no effect, 100 is complete control
[14] = Preemergence, 125 g ai/ha, 0 to 100 scale (0 no effect, 100 complete control)
[15] = Flood (flooded paddy test), 250 g ai/ha, scale 0 to 100, 0 no effect, 100 complete control
[16] = Flood, 62 g ai/ha, scale 0 to 100

Compound	Plant response rating, Barnyardgrass [1, 11]	Plant response rating, Barnyardgrass [1, 12]	Plant response rating, Barnyardgrass [1, 13]	Plant response rating, Barnyardgrass [1, 14]	Plant response rating, Blackgrass [2, 11]	Plant response rating, Blackgrass [2, 12]	Plant response rating, Blackgrass [2, 13]	Plant response rating, Blackgrass [2, 14]	Plant response rating, Canarygrass [3, 12]	Plant response rating, Canarygrass [3, 14]	Plant response rating, Corn (corn (Zea mays); [11])	Plant response rating, Corn (corn (Zea mays); [12])	Plant response rating, Corn (corn (Zea mays); [13])	Plant response rating, Corn (corn (Zea mays); [14])	Plant response rating, Foxtail, Giant [4, 11]	Plant response rating, Foxtail, Giant [4, 12]	Plant response rating, Foxtail, Giant [4, 13]	Plant response rating, Foxtail, Giant [4, 14]	Plant response rating, Crabgrass, Large [5, 11]	Plant response rating, Crabgrass, Large [5, 12]	also measured
CCc1cc(-c2ccc(Cl)cc2)nn1-c1c(O)c(C)nn(C)c1=O [Compound 86]	100	100	50	100	80	100	50	90	100	100	30	90	0	40	70	90	10	100	70	100	Plant response rating, Crabgrass, Large [5, 13]: 10; Plant response rating, Crabgrass, Large [5, 14]: 90; Plant response rating, Pigweed [6, 11]: 0; Plant response rating, Pigweed [6, 12]: 0; Plant response rating, Pigweed [6, 13]: 0; Plant response rating, Pigweed [6, 14]: 0; Plant response rating, Wheat [7, 11]: 20; Plant response rating, Wheat [7, 12]: 50; Plant response rating, Wheat [7, 13]: 0; Plant response rating, Wheat [7, 14]: 40; Plant response rating, Barnyardgrass [8, 15]: 40; Plant response rating, Barnyardgrass [8, 16]: 0; Plant response rating, Ducksalad [9, 15]: 65; Plant response rating, Ducksalad [9, 16]: 30; Plant response rating, Rice (rice (Oryza sativa); [15]): 35; Plant response rating, Rice (rice (Oryza sativa); [16]): 30; Plant response rating, Sedge, Umbrella [10, 15]: 55; Plant response rating, Sedge, Umbrella [10, 16]: 0
CC(C)Cc1cc(-c2ccc(Cl)cc2)nn1-c1c(O)cnn(C)c1=O [Compound 92]	0	80	0	20	0	50	0	0	30	10	0	20	0	20	10	60	0	50	0	10	Plant response rating, Canarygrass [3, 11]: 0; Plant response rating, Canarygrass [3, 13]: 0; Plant response rating, Crabgrass, Large [5, 13]: 0; Plant response rating, Crabgrass, Large [5, 14]: 20; Plant response rating, Pigweed [6, 11]: 0; Plant response rating, Pigweed [6, 12]: 0; Plant response rating, Pigweed [6, 13]: 0; Plant response rating, Pigweed [6, 14]: 0; Plant response rating, Wheat [7, 11]: 0; Plant response rating, Wheat [7, 12]: 30; Plant response rating, Wheat [7, 13]: 0; Plant response rating, Wheat [7, 14]: 0
